For assay [1], the system named is PSN1 cells. Put plainly: Combination with gemcitabine, CellTiter-Glo viability, Fa and CalcuSyn CI. As to conditions: 6 days.
Description: (§1) Cell viability was measured by the CellTiter-Glo Luminescence assay. Raw luminescent values were converted to fraction affected (Fa) with the following equation:
(§2) Synergy analysis was performed using the CalcuSyn software to determine CI scores based on the drug concentrations used and corresponding Fa values.
Assay [2] deals with HCT116 MTAP-null tumor xenografts. As to conditions: mouse, in vivo, po. The protocol: FIG. 2: ELISA analysis of HCT116 MTAP WT and HCT116 MTAP-null contralateral tumor cells. […] Percentage of inhibition reported relative to matched vehicle. Data represent mean±SD, n=3 for each group.
Female Athymic Nude mice were implanted with HCT116 MTAP-null or MTAP WT tumors. […] Data represents group means±SEM, n=10. […] STATS: P values were determined by Linear Mixed-Effects Model with a Dunnett's comparison to control.

Assay [3] concerns endogenous wild-type or MTAP-null cell lines. The experiment in a line: 6-day viability in expanded panel of tumor cell lines. The note with it: endogenous MTAP-null vs wild-type cell lines; 6-day CellTiter-Glo. It counts as cell-based. The protocol:
FIG. 9. […] Top concentration of tested was 10 μM (1 uM for DLBCL lines) with a total of nine 1:3 serial dilution steps and DMSO-only control. […] (mean±SD, n=3).
(In general: Cellular ATP, detected with luciferase, serves as a proxy for viable cell number.)

The next assay relates to HCT116 MTAP-WT cells. The experiment in a line: Global SDMA levels (in-cell imaging) in MTAP-WT cells. It counts as cell-based. As to conditions: Homo sapiens, HCT-116, 96 h, 4 days. The protocol:
FIG. 1. […] Viability was measured by CellTiter-Glo and cooperativity was determined as follows: Cooperativity=WT IC50/MTAP-null IC50.
HCT116 WT and MTAP-null global SDMA levels were assessed by an in-cell imaging assay after 4 days treatment.

The subject of assay [4] is PSN1 cells. The experiment in a line: Combination with carboplatin, CellTiter-Glo viability, Fa and CalcuSyn CI. The note with it: Compound B 0.0384 μM fixed + Carboplatin 3 μM, 6 days.
Description: as §1, §2
Another assay deals with MTAP-null cells. The experiment in a line: In-vitro mechanism of action studies (DNA damage, cell cycle). As to conditions: data not shown. Type of assay: cell-based.
Assay [5] has as its system BXPC-3 endogenous MTAP-null xenografts. The experiment in a line: BxPC-3 xenografts. Type of assay: in vivo. The note with it: BxPC-3 xenografts in SCID mice; p.o. once a day. An excerpt:
FIG. 10. […] Data represent group means±SEM, n=10. […] Data represent mean±SD, n=5 for each group.

Assay [6] relates to DOHH-2 endogenous MTAP-null xenografts. The note with it: mouse, in vivo, po. How it is done: FIG. 10. […] Female SCID mice were implanted with DOHH-2 or BxPC-3 tumors. […] Data represent group means±SEM, n=10. Terminal DOHH-2 or BxPC-3 tumors were collected for SDMA ELISA analysis. Data represent mean±SD, n=5 for each group. STATS: P values were determined by Linear Mixed-Effects Model with a Dunnett's comparison to control; **p<0.01, ****p<0.0001.
FIG. 11. […] (A-D.) Female SCID mice were implanted with DOHH-2 tumors. […] Mice were dosed orally (p.o.) once a day for ten days. Data represent group means±SEM, n=10. A.) Terminal DOHH-2 tumor volumes. […] C.) Disaggregated tumors were stained for γH2AX, MFI (mean florescent intensity). D.) Cardiac bleeds were performed and analyzed on ADVIA.

Assay [7] has as its system endogenous MTAP-null patient derived xenograft models. Put plainly: MTAP-null patient derived xenograft (PDX) models, tumor growth inhibition. It counts as in vivo, mice. The text has this: Female NOD/SCID mice were implanted with PA5415 (pancreatic tumors) or ES11082 (esophageal tumors). […] Data represent group means±SEM, n=10. for each group.
For each model, 6 Female NOD/SCID mice were implanted with PDX. Mean tumor volumes for each grouping were between 100-200 mm^3.
6 Female NOD/SCID mice were implanted with patient-derived tumor xenograft (PDX) models of pancreatic ovarian, esophageal, melanoma, lung, brain, mixed mullerian or gallbladder cancer. Mean tumor volumes for each grouping were between 100-200 mm^3.
(In xenograft studies the graft and the host belong to different species.)

Assay [8] has as its system PSN1 cells. The note with it: 6 days.
Description: as §1, §2
For another assay, the system named is MIAPACA2T2 cells. As to conditions: 6 days.
Setting [9] is: Compound B 0.022375 μM fixed + Gemcitabine 0.001461 μM.
Where [10] appears, read: Compound B 0.022375 μM fixed + Gemcitabine 0.005612 μM.
The mark [11] stands for this setting: Compound G 0.0213 μM fixed + 5-FU 0.357628 μM.
Where [12] appears, read: Compound G 0.0213 μM fixed + 5-FU 0.572205 μM.
[13] abbreviates: Compound G 0.0213 μM fixed + 5-FU 0.915527 μM.
Where [14] appears, read: Compound G 0.0213 μM fixed + 5-FU 1.46484 μM.
Where [15] appears, read: Compound G 0.0213 μM fixed + 5-FU 2.34375 μM.
The mark [16] stands for this setting: Compound G 0.0213 μM fixed + 5-FU 3.75 μM.
Setting [17] is: Compound G 0.0213 μM fixed + 5-FU 6 μM.
Setting [18] is: Compound G 0.83102 μM fixed + 5-FU 0.664052 μM.
Setting [19] is: Compound G 0.83102 μM fixed + 5-FU 0.929672 μM.
Where [20] appears, read: Compound G 0.83102 μM fixed + 5-FU 1.30154 μM.
Where [21] appears, read: Compound G 0.83102 μM fixed + 5-FU 1.82216 μM.
Where [22] appears, read: Compound G 0.83102 μM fixed + 5-FU 2.55102 μM.
Where [23] appears, read: Compound G 0.83102 μM fixed + 5-FU 3.57143 μM.
Setting [24] is: Compound G 0.83102 μM fixed + 5-FU 5 μM.

“Also recorded” adds a separate entry of the source. Like-named read-outs stand apart in the source and are kept apart here.

Description for MIAPACA2T2 cells: as §1, §2

The term IC50 denotes the concentration that inhibits the measured activity by half. Low readings indicate greater potency, high ones weaker potency. Regarding `Cc1cc2cc(C(=O)N(Cc3ccc(C(F)(F)F)cn3)[C@@H](C)c3ncccn3)ccc2nc1N` [Compound B], the “Combination Fa” value with PSN1 cells [1] (setting [9]) is recorded as 0.594; with PSN1 cells [1] (setting [10]), 0.985; in the assay on PSN1 cells [1] (Compound B 0.022375 μM fixed + Gemcitabine 0.007857 μM), 0.986; in the assay on PSN1 cells [1] (Compound B 0.022375 μM fixed + Gemcitabine 0.011 μM), 0.989. In addition, the “Computed CI value” is listed as 2.081 with PSN1 cells [1] (setting [9]), 1.177 in the assay with PSN1 cells [1] (Compound B 0.022375 μM fixed + Gemcitabine 0.002045 μM), 0.8 in the assay with PSN1 cells [1] (setting [10]) and 0.547 in the assay on PSN1 cells [4]. The “SDMA and tumor growth in xenografts” value in assay [2] was “selectively inhibits SDMA and tumor growth”. Moreover, the “proliferation / viability in expanded panel of tumor cell lines” value in assay [3] is “inhibited the proliferation of most MTAP-null cells, with minimal effects on MTAP-WT cells; also recorded: preferential activity in endogenous MTAP-null tumor cell lines; also recorded: preferentially inhibits cell viability in endogenous MTAP-null vs. wildtype”. Moreover, in the assay with HCT116 MTAP-WT cells, 50 nM corresponded to half-maximal inhibition (IC50). In addition, in the assay with MTAP-null cells, the “DNA damage (phosphorylation of H2AX)” value is given as “induced DNA damage, as illustrated by increased phosphorylation of H2AX”. Besides, the cell cycle result with MTAP-null cells was “an arrest in the G2/M phase of the cell cycle”. Also, the anti-tumor activity entry in assay [5] and in assay [6] was “significant anti-tumor activity” throughout. In [6] (100 mg/kg), the “DNA damage response in tumors (γH2AX)” value is “increase in the DNA damage response”. For the same molecule, the “cell cycle in tumors (BrdU/DAPI flow cytometry)” value in assay [6] (100 mg/kg) is on record as “cell cycle arrest”. Moreover, the “tumor growth inhibition (TGI)” value in assay [7] (100 mg/kg orally once daily, majority of PDX models harboring deletion of the MTAP gene, panel of over twenty PDX models) is on record as “greater than 50%”. Also, the anti-tumor growth inhibition entry in assay [7] (PA5415 pancreatic and ES11082 esophageal PDX, p.o. once a day) was “significant anti-tumor growth inhibition”.

As for `Nc1nc2cnc(C(=O)N3CCOC[C@@H]3c3ccc(C(F)(F)F)cc3)cc2c2c1COC2` [Compound G], the “Combination Fa” value was determined as 0.3 in the assay with PSN1 cells [8] (setting [11]); 0.416 with PSN1 cells [8] (setting [12]); 0.669 with PSN1 cells [8] (setting [13]); 0.74 in the assay with PSN1 cells [8] (setting [14]); 0.789 with PSN1 cells [8] (setting [15]); 0.836 with PSN1 cells [8] (setting [16]). The “Combination Fa” value with PSN1 cells [8] (setting [17]) turned out to be 0.869; in the assay with MIAPACA2T2 cells (setting [18]) it was 0.7114; with MIAPACA2T2 cells (setting [19]) it was 0.7511; with MIAPACA2T2 cells (setting [20]), 0.8099; in the assay on MIAPACA2T2 cells (setting [21]), 0.85; in the assay with MIAPACA2T2 cells (setting [22]), 0.8941. In addition, the “Combination Fa” value with MIAPACA2T2 cells (setting [23]) was found to be 0.9193; with MIAPACA2T2 cells (setting [24]) it was 0.9246. In addition, the “Computed CI value” is on record as 1.422 with PSN1 cells [8] (setting [11]); 1.404 in the assay on PSN1 cells [8] (setting [12]); 1.055 with PSN1 cells [8] (setting [13]); 1.282 with PSN1 cells [8] (setting [14]); 1.668 with PSN1 cells [8] (setting [15]); 2.158 with PSN1 cells [8] (setting [16]). Moreover, the “Computed CI value” is on record as 2.903 in the assay with PSN1 cells [8] (setting [17]); 0.445 in the assay with MIAPACA2T2 cells (setting [18]); 0.477 in the assay with MIAPACA2T2 cells (setting [19]); 0.482 with MIAPACA2T2 cells (setting [20]); 0.529 in the assay with MIAPACA2T2 cells (setting [21]); 0.555 in the assay with MIAPACA2T2 cells (setting [22]). The entries for the “Computed CI value” in the assay on MIAPACA2T2 cells (setting [23]) and with MIAPACA2T2 cells (setting [24]) were 0.632 and 0.834, respectively.

The values above are taken from US20250228861A1, “Cancer Treatments Using MTA-Cooperative PRMT5 Inhibitors” (AMGEN INC., priority 2022, published 2025).
